# According to patent publication US8889733B2, “Artonin I to treat resistant infectious Staphylococcus aureus” (priority 2013, dated 2014):
# Where two headings read alike, the source gives them in different places.
# Tests used:
# EMRSA-17 [1] = assay: Reversal of Multi-Drug Resistance (MIC/FIC of antibiotics combined with compound 1); format: cell-based, Staphylococcus aureus; details: for FIC (s): FIC (a) + FIC (b), antibiotic plus Compound 1; for FIC (b): FIC of Compound 1 in combination with the antibiotic named as label; for FIC (a): FIC of the antibiotic = MIC in combination with Compound 1 / MIC alone; for MIC: Staphylococcus aureus
# Protocol: (§1) Assay Protocol: Protocol of Chung et al, (2001), with slight modifications, was followed. 5×10 MDR S. aureus cells were treated with 20 μg/mL of test compounds and incubated for 20 hours. Control cells were not exposed to any test compound and antibiotic. In 96-well plate, increasing concentration of antibiotics, along with the fixed concentration of test compounds were added. Inoculum of 5×10^5 cells was applied to all wells. The presence or absence of growth in all combination wells were noted visually and by using the dye Alamar blue.
# (§2) Fractional inhibitory concentrations were calculated by the above cited formulae. • FIC of Antibiotic a (FICa)=MIC of Antibiotic a in combination/MIC of antibiotic a alone • FIC of Compound b (FICb)=MIC of Compound b in combination/MIC of compound b alone
# (§3) The sum of Fractional Inhibitory Concentration (FICs) index of: (FICa)+(FICb)=(FICs)
# Clinical Isolates [2] = assay: as above; format: cell-based, Staphylococcus aureus; details: for FIC (b): FIC of Compound 1 in combination with the antibiotic named as label; for FIC (a): FIC of the antibiotic = MIC in combination with Compound 1 / MIC alone; for MIC: Staphylococcus aureus; for FIC (s): FIC (a) + FIC (b), antibiotic plus Compound 1
# Protocol: as §1, §2, §3
# MRSA-252 = assay: High throughput screening assay (MABA) against MDR S. aureus; format: cell-based; details: Staphylococcus aureus, 20 μg/mL, 20 hours, Alamar Blue
# Protocol: (§4) High throughput screening assay (MABA) against MDR S. aureus:
# (§5) Inocula Preparation: Isolated colonies of S. aureus were picked and inoculated into Muller Hinton broth and incubated at 37° C. for 20 hours. After 20 hours, the turbidity was checked and adjusted to 0.5 McFarland standards.
# (§6) Assay Protocol: Assays were performed according to method reported by Sarkar et al. (2007) with slight modifications. Flat bottom, polystyrene, non-tissue culture treated, sterile 96-well micro titer plates were used with proper labeling. Stock solutions of test compounds 1 and 2 were prepared in DMSO with the concentration of 1 mg/mL. 4 μL from stock solutions were distributed in each well, except the control wells of the plate. Two fold serial dilutions using sterile broth were made with the final volume of […], in each well. The bacterial suspensions (cone 5×10^5) were then added in each wells. The plate was sealed by parafilm and incubated at 37° C. for 20 hours. The plates were prepared in triplicate. Next day, 10% Alamar Blue Dye was added to the culture and kept on shaking incubator at 37° C. for 3 to 4 hours. The color change was then assessed visually, qualitatively and quantitatively by recording absorbance at 570 and 600 nm by a spectrophotometer. The percentage inhibition of compound 1 and 2 against EMRSA-16, and 17, MRSA-252 and clinical isolate by MABA assays are given in Table 1.
# (§7) Percentage reduction and inhibition of Alamar blue dye was calculated by using the following formula.
# (§8) Here control wells contain only media plus Alamar Blue, while the test wells contains both Alamar Blue with the test compounds.
# EMRSA-17 [3] = assay: as above; format: cell-based; details: Staphylococcus aureus, 20 μg/mL, 20 hours, Alamar Blue
# Protocol: as §4, §5, §6, §7, §8
# EMRSA-16 = assay: as above; format: cell-based; details: Staphylococcus aureus, 20 μg/mL, 20 hours, Alamar Blue
# Protocol: as §4, §5, §6, §7, §8
# Clinical Isolates [4] = assay: as above; format: cell-based; details: Staphylococcus aureus, 20 μg/mL, 20 hours, Alamar Blue
# Protocol: as §4, §5, §6, §7, §8
# EMRSA-17 [5] = assay: Lucigenin CL assay of Reactive Oxygen Species (O2-) production; format: cell-based, Staphylococcus aureus; details: different concentrations, RLU
# Protocol: (§9) Assay Protocol: Protocol of Albesa et al (2002) was followed with slight modifications. 5×10^5 Cells were treated with the different concentrations of test compounds. Cells with compounds were incubated with leueigenin and filtered phosphate buffer saline. DMSO was added to the each well at the time of RLU determination to trigger the reaction. […] Positive control contains DMSO, but not the test compound. Determination by chemiluminescence (CL) was performed at room temperature by luminometer. The light emission results were measured in relative light unit (RLU).
# Clinical Isolates [6] = assay: as above; format: cell-based, Staphylococcus aureus; details: different concentrations, RLU
# Protocol: as §9
# EMRSA-17 [7] = assay: Membrane potential and integrity, DiBAC4(3) flow cytometry; format: cell-based, Staphylococcus aureus; details: 20 μg/mL, 20 hrs, flow cytometry FL1
# Protocol: (§10) Compound Treatment: 5×10^5 MDR S. aureus cells were treated with 20 μg/mL of test compounds and incubated for 20 hours, while the control cells were incubated without test compound.
# (§11) Cell Staining: Staining procedure of Jepras et al. (1997) was adapted with slight modifications. Stock solutions (1 mg/mL) for the membrane potential probe DiBAC4(3) were made in absolute ethanol and stored at −20 ° C. […] Samples (1 mL) of exponentially growing S. aureus were taken from broth cultures. Samples were centrifuged at 11,000 rpm for 2 min and the supernatant was discarded. Cell pellets were resuspended in 4 mL of filtered phosphate-buffered saline (PBS). Fluorogenic substrates DiBAC4(3) were added to the cell suspensions to obtain a final concentration of 10 μg/mL. The suspensions were then incubated at 37° C. for 30 min. Cells were washed by centrifugation in the PBS buffer and then analyzed by flow cytometry.
# (§12) Flow cytometry data acquisition: The flow cytometric assay was performed on a Becton Dickinson FACSCaliber™ flow cytometer. A total of 50,000 cells were counted by using Cell Quest software (BD) for data acquisition and analysis. The emission maximum of DiBAC4(3) was at 516 nm and its green fluorescence was detected in the channel FL1 (Veal et al., 2000).
# clinical isolate = assay: as above; format: cell-based, Staphylococcus aureus; details: 20 μg/mL, 20 hrs, flow cytometry FL1
# Protocol: as §10, §11, §12
# [8] = tested on: MDR Efflux Pumps of EMRSA-17; assay: EtBr accumulation/efflux flow cytometry assay; format: cell-based, Staphylococcus aureus; details: compound 1 in combination with antibiotics, 3 hrs, FL2
# Protocol: (§13) Assay Protocol: Protocol of Kalle et al, (2009) was employed with some modifications. Control cells were not exposed with any test compound or antibiotic. Combination of test compound and antibiotics were incubated for 3 hrs in test cells. Ethiduim bromide (EtBr) was added in to the Eppendorff, containing the combination of both drugs and compound. Cells with the drugs were also incubated and stained with EtBr. Control and treated samples were centrifuged for 3 min at 13,000 rpm. Supernatant was […] and the pallet was washed with PBS. Positive control contains ethidium bromide, while negative control was EtBr free. Flow cytometric analysis was carried out done by using the FL2 channel.
# (§14) Flow cytometry data acquisition: The flow cytometric assay was performed. A total of 50,000 cells were counted by using Cell Quest software (BD) for data acquisition and analysis. EtBr was excited at 488 nm and the fluorescence detected through a 585 nm filter (FL-2 channel).
# [9] = tested on: MDR Efflux Pumps of clinical isolates; assay: EtBr accumulation/efflux flow cytometry assay; format: cell-based, Staphylococcus aureus; details: compound 1 in combination with antibiotics, 3 hrs, FL2
# Protocol: as §13, §14
# [10] = antibiotic in combination with Compound 1
# [11] = antibiotic in combination with Compound 1, listed as clindamycin
# [12] = antibiotic alone, read-out: MIC (a)
# [13] = Compound 1 alone, read-out: MIC (b)
Compound,FIC (s) (EMRSA-17 [1]),FIC (b) (EMRSA-17 [1]),Effect (EMRSA-17 [1]; [10]),MIC (a + b) (EMRSA-17 [1]; [10]) [µg/mL],MIC (a) (EMRSA-17 [1]; antibiotic alone) [µg/mL],Effect (Clinical Isolates [2]; [10]),MIC (a + b) (Clinical Isolates [2]; [10]) [µg/mL],MIC (EMRSA-17 [1]; [12]) [µg/mL],MIC (Clinical Isolates [2]; [12]) [µg/mL],other results
O=C(O)c1cn(C2CC2)c2cc(N3CCNCC3)c(F)cc2c1=O [Ciprofloxacin],0.164,0.16,Synergistic,4,–,–,–,–,–,–
Neomycin,0.336,0.32,Synergistic,8,512,Synergistic,8,–,–,"FIC (a) (EMRSA-17 [1]): 0.1562; MIC (a) (EMRSA-17 [1]; antibiotic alone, listed as neomycin): 256 µg/mL; FIC (b) (Clinical Isolates [2]): 0.320; FIC (a) (Clinical Isolates [2]): 0.0078"
CCC[C@@H]1C[C@@H](C(=O)N[C@@H]([C@H]2O[C@H](SC)[C@H](O)[C@@H](O)[C@H]2O)[C@H](C)Cl)N(C)C1 [Clindamicin],0.322,0.32,Synergistic,8,4096,Synergistic,16,–,–,"MIC (a) (EMRSA-17 [1]; antibiotic alone, listed as clindamycin): 1024 µg/mL; MIC (a) (Clinical Isolates [2]; antibiotic alone): 4096 µg/mL; Effect (Clinical Isolates [2]; [11]): partial synergistic activity; MIC (a + b) (Clinical Isolates [2]; [11]): 8 µg/mL"
[H]/N=C(/N)N[C@H]1[C@H](O)[C@@H](O)[C@H](O[C@@H]2O[C@@H](C)[C@](O)(C=O)[C@H]2O[C@@H]2O[C@@H](CO)[C@H](O)[C@@H](O)[C@@H]2NC)[C@@H](N/C(N)=N\[H])[C@@H]1O [Streptomycin],0.647,0.64,Partial,16,–,Synergistic,–,2080,2050,"Effect (EMRSA-17 [1]; antibiotic in combination with Compound 1, listed as streptomycin): partial synergistic effect"
Cc1onc(-c2ccccc2)c1C(=O)N[C@@H]1C(=O)N2[C@@H]1SC(C)(C)[C@@H]2C(=O)O [Oxacillin],0.0809,0.08,Synergistic,2,–,Synergistic,–,4100,2080,–
O=C(N[C@H](CO)[C@H](O)c1ccc([N+](=O)[O-])cc1)C(Cl)Cl [Chloramphenicol],0.328,0.32,Synergistic,8,–,Synergistic,8,1020,1020,–
Gentamicin,0.164,0.16,Synergistic,4,512,Synergistic,8,–,–,FIC (a) (EMRSA-17 [1]): 0.0039; FIC (s) (Clinical Isolates [2]): 0.3356; FIC (b) (Clinical Isolates [2]): 0.320; FIC (a) (Clinical Isolates [2]): 0.0156; MIC (a) (Clinical Isolates [2]; antibiotic alone): 512 µg/mL
CC[C@H]1OC(=O)[C@H](C)[C@@H](O[C@H]2C[C@@](C)(OC)[C@@H](O)[C@H](C)O2)[C@H](C)[C@@H](O[C@@H]2O[C@H](C)C[C@H](N(C)C)[C@H]2O)[C@](C)(O)C[C@@H](C)C(=O)[C@H](C)[C@@H](O)[C@]1(C)O [Erythromycin],0.324,0.32,Synergistic,8,–,Synergistic,8,1020,2050,–
NCC[C@H](O)C(=O)N[C@@H]1C[C@H](N)[C@@H](O[C@H]2O[C@H](CN)[C@@H](O)[C@H](O)[C@H]2O)[C@H](O)[C@H]1O[C@H]1O[C@H](CO)[C@@H](O)[C@H](N)[C@H]1O [Amikacin],0.351,0.32,Synergistic,8,–,Partial,–,–,128,–
Cc1cc(NS(=O)(=O)c2ccc(N)cc2)no1 [Sulfamethoxazole],0.324,0.32,Synergistic,8,–,Synergistic,–,2080,2050,–
"CC(C)=CCc1c(O)ccc(C(=O)[C@@H]2C(c3ccc(O)cc3O)CC(C)=C[C@@H]2c2c(O)cc3oc(-c4ccc(O)cc4O)cc(=O)c3c2O)c1O (stereo partly shown) [Compound 1, artonin I]",–,–,–,–,–,–,–,–,–,"inhibition at 20 µg/mL (MRSA-252): 69.4%; inhibition at 20 µg/mL (EMRSA-17 [3]): 91.1%; inhibition at 20 µg/mL (EMRSA-16): 88.7%; inhibition at 20 µg/mL (Clinical Isolates [4]): 88.9%; production of O2- (ROS), lucigenin chemiluminescence (EMRSA-17 [5]): more production of O2^− was observed; production of O2- (ROS), lucigenin chemiluminescence (Clinical Isolates [6]): more production of O2^− was observed; membrane potential and integrity, DiBAC4(3) fluorescence (EMRSA-17 [7]): majority of population was shifted in a rapid regular pattern due to the change in membrane potential; membrane potential and integrity, DiBAC4(3) fluorescence (clinical isolate): bulky peaks steadily moved towards the area of increasing fluorescence; efflux activity, EtBr accumulation [8]: decrease in the efflux activity was observed; efflux activity, EtBr accumulation [9]: decrease in the efflux activity was observed; MIC (EMRSA-17 [1]; [13]): 25 µg/mL; MIC (Clinical Isolates [2]; [13]): 25 µg/mL"
Penicillin,0.164,0.16,Synergistic,4,2084,Synergistic,8,–,–,FIC (a) (EMRSA-17 [1]): 0.0039; FIC (s) (Clinical Isolates [2]): 0.3238; FIC (b) (Clinical Isolates [2]): 0.320; FIC (a) (Clinical Isolates [2]): 0.0038; MIC (a) (Clinical Isolates [2]; antibiotic alone): 2084 µg/mL
